Marks after values point to notes of the source that are not given here.
Legend:
HUVEC = experiment: Migration wound healing assay; assay type: cell-based
Procedure: Methodology—A day before the assay, 5×10^5 endothelial cells were plated in E-well plates and grown in adequate complete medium over night. Confluent HUVEC monolayers were then scraped to create a wound. Cells were the treated with 20 ug/ml of each drug. After wounding and 6 hours later, two different fields of each wound were photographed with a phase-contrast microscope. Measurements of the width of each wound were made in each experimental condition. At the start of the experiment, the wound size was measured and scored as 100%. After 6 hours, the width of the remaining wound was measured and average percent wound closure was calculated.

rat aortic rings = experiment: Ex vivo rat aortic ring angiogenesis assay; assay type: cell-based
Procedure: These ex vivo organo-typic cultures were treated with single compound. […] Neovascularization was evaluated as a marker of the observed angiogenic response.
Statistical analysis—Analysis of variance was performed on the six observations per treatment for the controls and two test concentrations after normalizing to the dimethyl sulfoxide control. The probability of a type I error was set at the nominal five percent level.

endothelial cells = experiment: Proliferation assay (DNA content, Hoechst 33258); assay type: cell-based
Procedure: Methodology—A day before the assay, 1×10^4 endothelial cells were plated in quadruplicate in 24-well plates ad grown in adequate complete medium over night. Cells were then treated with 10 ug/ml and 20 ug/ml of each drug. […] The dilutions and concentrations of the dyes were chosen to yield appropriate dye/base pair ratios that are crucial to obtain maximal linearity and sensitivity of the DNA quantification assays. After an incubation time of ˜10 min, fluorescence intensities were measure. All investigations were generally performed at room temperature with the solutions protected from light. Spectrofluorimetric measurements were performed with Spectramax Gemini XS. […] Florescence values were converted into DNA concentrations according to the fluorescence intensities of DNA standard calibration curves.

Bmx(h) = target: T1, Bmx(h) (Homo sapiens, UniProt P51813); experiment: KinaseProfiler Assay
T1 sequence (P51813 1-675): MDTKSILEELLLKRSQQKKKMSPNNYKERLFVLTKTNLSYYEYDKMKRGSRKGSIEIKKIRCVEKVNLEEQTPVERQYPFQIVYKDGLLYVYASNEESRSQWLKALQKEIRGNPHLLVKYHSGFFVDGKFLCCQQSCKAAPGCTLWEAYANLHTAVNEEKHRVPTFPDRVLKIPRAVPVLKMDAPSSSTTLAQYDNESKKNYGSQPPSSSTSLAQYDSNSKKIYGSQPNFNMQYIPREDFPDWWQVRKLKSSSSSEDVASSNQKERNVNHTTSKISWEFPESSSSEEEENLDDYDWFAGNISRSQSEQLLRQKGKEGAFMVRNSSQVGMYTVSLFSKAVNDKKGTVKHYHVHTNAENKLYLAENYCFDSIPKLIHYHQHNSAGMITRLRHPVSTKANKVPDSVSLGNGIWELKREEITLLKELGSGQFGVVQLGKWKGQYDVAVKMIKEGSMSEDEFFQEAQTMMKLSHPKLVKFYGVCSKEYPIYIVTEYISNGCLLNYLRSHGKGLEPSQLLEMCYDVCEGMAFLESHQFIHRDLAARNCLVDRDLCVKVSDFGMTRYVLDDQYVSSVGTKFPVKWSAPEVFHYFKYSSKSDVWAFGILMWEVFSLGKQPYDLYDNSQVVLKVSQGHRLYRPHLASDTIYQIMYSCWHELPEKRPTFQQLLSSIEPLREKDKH

For `COc1cc(O)c(CC=C(C)C)c(O)c1C(=O)/C=C/c1ccc(O)cc1` [Xanthohumol, xanthohumol], the “Relative Percent Wound Closure at Six Hours vs Dimethyl Sulfoxide Controls” value (HUVEC; 20 μg/mL, HUVEC, six hours) was 45** Percent, the “wound closure (in words)” value (HUVEC; 20 ug/ml, 6 hours) was “most active of the test materials” and the “Summary of Effects: Migration” value (HUVEC; summary table) was −60%. The “Relative Number of Vessels vs Dimethyl Sulfoxide Controls” value (rat aortic rings; 5.0 μg/mL) was 95.9, the “Relative Number of Vessels vs Dimethyl Sulfoxide Controls” value (rat aortic rings; 20 μg/mL) was 100 and the “vessel growth (in words)” value (rat aortic rings; 20 and 5 μg/mL) was “not active”. For the same molecule, the “Summary of Effects: Aortic Angiogenesis” value (rat aortic rings; summary table) was “Not Active”, the “Relative DNA Content vs Dimethyl Sulfoxide Controls” value (“Relative DNA Content” for short) (endothelial cells; 24 Hours, 10 μg/mL) was 95 and the “Relative DNA Content” value (endothelial cells; 24 Hours, 20 μg/mL) was 66**. For the same molecule, the “Relative DNA Content” value (endothelial cells; 48 Hours, 10 μg/mL) was 82**, the “Relative DNA Content” value (endothelial cells; 48 Hours, 20 μg/mL) was 57** and the “Relative DNA Content” value (endothelial cells; 72 Hours, 10 μg/mL) was 71**. The “Relative DNA Content” value (endothelial cells; 72 Hours, 20 μg/mL) was 42** and the “Summary of Effects: Proliferation” value (endothelial cells; summary table) was −60%.
In the case of `CCC(C)C(=O)C1=C(O)[C@@](O)(C(=O)CCC(C)C)[C@H](CCC(C)C)C1=O` (stereo partly shown) [TH4, tetrahydro-isoadhumulone], the “inhibition of BMX kinase” value (Bmx(h); 100 μg/mL) is reported as “inhibit it almost completely”.
With `CC(C)CCC(=O)[C@]1(O)C(O)=C(C(=O)C(C)C)C(=O)[C@H]1CCC(C)C` [TH1, tetrahydro-isocohumulone] the “activity in inhibiting BMX in comparison with TH4 and TH5” value (Bmx(h); 100 μg/ml) was “about 50%”.

Reference: patent US20100137449A1, “SUBSTITUTED 1,3-CYCLOPENTADIONE MULTI-TARGET PROTEIN KINASE MODULATORS OF CANCER, ANGIOGENESIS AND THE INFLAMMATORY PATHWAYS ASSOCIATED THEREWITH” (METAPROTEOMICS, LLC, priority 2007, published 2010)
